Experimental data reported in ChEMBL document CHEMBL3272257, “Clonidine and related analogues. Quantitative correlations” (J Med Chem, 1976).

Assays:
[1] = Retardation factor, deltaRm of the compound at pH 13 by TLC analysis; format: physicochemical
[2] = Octan-1-ol-aqueous buffer partition coefficient, log P of the compound at 10 to 20 mg at pH 7.4 by UV-spectroscopic analysis; format: physicochemical
[3] = Dissociation constant, pKa of the compound in water-ethyl alcohol; format: physicochemical
Rattus norvegicus [4] = species on record: Rattus norvegicus; assay: Hypotensive activity in rat assessed as change in mean blood pressure relative to control; format: functional; parameters: concentration or dose not given beside the values
Rattus norvegicus [5] = assay: Peripheral adrenergic activity in iv dosed pithed rat assessed as change in mean blood pressure; format: functional
Rattus norvegicus [6] = assay: Toxicity in iv dosed pithed rat; format: organism-based; conditions: in vivo

Row | Compound | deltaRm [1] | logD [2] | pKa [3] | Activity (Rattus norvegicus [4]) [%] | pD2 (Rattus norvegicus [5]) | LD50 (Rattus norvegicus [6]) [µM]
1 | Clc1ccc(Cl)c(N=C2NCCN2)c1 | 0.71 | 0.95 | 8 | <10 | 7.65 | 
2 | CCc1cccc(CC)c1NC1=NCCN1 | 0.95 | -0.84 | 10.6 | >10 | 7.61 | 
3 | Cc1cc(Cl)ccc1N=C1NCCN1 | 0.75 | -0.58 | 9.75 | <10 | 7.11 | 
4 | CCc1ccccc1N=C1NCCN1 |  |  |  |  | 7.55 | 
5 | Brc1ccc(N=C2NCCN2)cc1 | 0.58 | -0.5 | 9.65 | <10 | 6.09 | 
6 | Cc1cccc(C)c1N=C1NCCN1 | 0.42 | -1.65 | 10.5 | <10 | 7.74 | 
7 | CC(C)c1cccc(C(C)C)c1N=C1NCCN1 | 1.32 | -0.21 | 10.7 | <10 | 5.79 | 
8 | Cc1cc(O)cc(C)c1N=C1NCCN1 |  |  |  |  | 7.51 | 
9 | Cc1ccc(NC2=NCCN2)c(Cl)c1 [TOLONIDINE] |  | -0.28 | 9.55 | 15 | 7.08 | 
10 | Brc1cccc(Br)c1N=C1NCCN1 | 0.61 | 1.15 | 7.95 | 15 | 7.28 | 
11 | Cc1cc(C)c(N=C2NCCN2)c(C)c1 |  |  |  |  | 7.8 | 
12 | COc1cc(C)c(N=C2NCCN2)c(C)c1 |  |  |  |  |  | 54
13 | Oc1cc(Cl)c(N=C2NCCN2)c(Cl)c1 |  | -0.4 | 7.95 | <10 | 7.37 | 
14 | Clc1cc(Cl)c(N=C2NCCN2)cc1Cl | 1.2 | 1.63 | 7.7 |  |  | 
15 | c1ccc(NC2=NCCN2)cc1 | 0 | -1.8 | 10.4 | <10 | 5.84 | 
16 | Cc1ccc(N=C2NCCN2)c(C)c1 | 0.43 | -1.46 | 10.7 | >10 | 7.74 | 
17 | FC(F)(F)c1ccccc1N=C1NCCN1 |  | 0 | 8.8 | <10 | 6.13 | 
18 | Fc1cccc(F)c1N=C1NCCN1 | 0.24 | 0.02 | 8.4 | <10 | 7.23 | 
19 | COc1cc(C)ccc1N=C1NCCN1 | -0.03 | -1.56 | 10.6 | <10 | 6.58 | 
20 | COc1cc(OC)c(N=C2NCCN2)cc1Cl | -0.07 | -1.37 | 10.2 | <10 | 6.68 | 
21 | Cc1cccc(Cl)c1N=C1NCCN1 | 0.45 | -0.4 | 9.2 | 15 | 7.74 | 
22 | Clc1cccc(Cl)c1NC1=NCCN1 [CLONIDINE] | 0.38 | 0.83 | 8.05 | 15 | 7.66 | 
23 | Clc1cc(Cl)c(N=C2NCCN2)c(Cl)c1 | 1 |  | 7.6 | 15 | 7.13 | 
24 | Cc1ccc(Cl)cc1N=C1NCCN1 | 0.72 | -0.3 | 9.5 | <10 | 7.64 | 
25 | Clc1ccc(N=C2NCCN2)c(Cl)c1 | 0.76 | 0.69 | 8.65 | 15 | 6.71 | 
26 | COc1ccc(OC)c(N=C2NCCN2)c1 | -0.42 | -1.78 | 10.2 | <10 | 6.98 | 
